ChEMBL document CHEMBL1201862, “PubChem BioAssay data set” (2004)
Active and inactive are the calls of the source.

Assays:
[1] = molecular target: T1, Sentrin-specific protease 8 (Homo sapiens, UniProt Q96LD8); type: functional
T1 sequence (Q96LD8 whole entry): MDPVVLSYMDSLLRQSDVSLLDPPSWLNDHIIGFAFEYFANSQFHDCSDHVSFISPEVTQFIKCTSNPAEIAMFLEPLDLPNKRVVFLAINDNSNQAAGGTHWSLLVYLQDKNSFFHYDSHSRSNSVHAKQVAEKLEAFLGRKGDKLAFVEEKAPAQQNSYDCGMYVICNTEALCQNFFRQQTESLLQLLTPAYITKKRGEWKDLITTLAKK

[2] = molecular target: T1, Sentrin-specific protease 8; type: functional; remark: listed apart in the source
[3] = Counterscreen for inhibitors of Trypanosoma brucei methionyl tRNA synthetase (MetRS): Luminescence-based cell-based high throughput dose response assay to identify compounds that are cytotoxic to Jurkat human T lymphocyte cells.; type: functional
[4] = molecular target: T2, Methionyl-tRNA synthetase, putative (Trypanosoma brucei brucei, UniProt Q38C91); type: functional, Trypanosoma brucei brucei strain 927/4 GUTat10.1
T2 sequence (Q38C91 whole entry): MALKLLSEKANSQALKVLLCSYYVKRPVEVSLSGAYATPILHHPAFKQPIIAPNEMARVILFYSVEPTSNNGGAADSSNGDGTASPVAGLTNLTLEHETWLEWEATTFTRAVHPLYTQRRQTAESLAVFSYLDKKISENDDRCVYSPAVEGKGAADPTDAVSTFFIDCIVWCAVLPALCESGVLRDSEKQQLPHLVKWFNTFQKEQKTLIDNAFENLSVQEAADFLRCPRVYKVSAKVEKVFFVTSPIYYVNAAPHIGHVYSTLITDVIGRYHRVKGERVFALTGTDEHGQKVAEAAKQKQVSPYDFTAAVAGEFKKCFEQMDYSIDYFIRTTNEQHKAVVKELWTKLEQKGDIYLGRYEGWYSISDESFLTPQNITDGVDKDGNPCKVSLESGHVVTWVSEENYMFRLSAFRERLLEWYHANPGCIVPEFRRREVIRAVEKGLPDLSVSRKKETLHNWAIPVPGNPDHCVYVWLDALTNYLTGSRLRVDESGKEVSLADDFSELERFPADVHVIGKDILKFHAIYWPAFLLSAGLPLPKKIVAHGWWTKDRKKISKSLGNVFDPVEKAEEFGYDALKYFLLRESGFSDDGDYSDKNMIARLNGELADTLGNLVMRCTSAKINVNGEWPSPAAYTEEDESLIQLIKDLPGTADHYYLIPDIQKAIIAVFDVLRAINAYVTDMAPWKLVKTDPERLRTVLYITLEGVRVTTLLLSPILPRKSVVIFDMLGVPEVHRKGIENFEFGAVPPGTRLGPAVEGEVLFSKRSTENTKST

[5] = molecular target: Induced myeloid leukemia cell differentiation protein Mcl-1 (Homo sapiens, UniProt Q07820); type: functional
Sequence of Induced myeloid leukemia cell differentiation protein Mcl-1 (Q07820 whole entry): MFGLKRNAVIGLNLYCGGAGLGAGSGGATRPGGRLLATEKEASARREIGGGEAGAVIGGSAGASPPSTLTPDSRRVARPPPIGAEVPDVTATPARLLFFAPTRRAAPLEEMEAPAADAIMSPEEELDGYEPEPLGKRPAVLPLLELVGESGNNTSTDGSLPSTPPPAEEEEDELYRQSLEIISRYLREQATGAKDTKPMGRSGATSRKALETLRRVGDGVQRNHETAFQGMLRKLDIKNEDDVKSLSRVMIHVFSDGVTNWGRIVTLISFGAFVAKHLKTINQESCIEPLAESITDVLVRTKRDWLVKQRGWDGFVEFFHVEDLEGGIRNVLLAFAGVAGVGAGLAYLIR

[6] = HeLa cell cytotoxicity, dose response, cytotoxicity control for MgcRacGAP inhibitor project (AID 624300); type: functional
[7] = molecular target: T3, Rac GTPase-activating protein 1 (Homo sapiens, UniProt Q9H0H5); assay: MgcRacGAP GTPase-activating activity inhibitors, confirmation, biochemical, ADP Hunter fluorescence, primary and confirmatory (AID 624330); type: functional
T3 sequence (Q9H0H5 whole entry): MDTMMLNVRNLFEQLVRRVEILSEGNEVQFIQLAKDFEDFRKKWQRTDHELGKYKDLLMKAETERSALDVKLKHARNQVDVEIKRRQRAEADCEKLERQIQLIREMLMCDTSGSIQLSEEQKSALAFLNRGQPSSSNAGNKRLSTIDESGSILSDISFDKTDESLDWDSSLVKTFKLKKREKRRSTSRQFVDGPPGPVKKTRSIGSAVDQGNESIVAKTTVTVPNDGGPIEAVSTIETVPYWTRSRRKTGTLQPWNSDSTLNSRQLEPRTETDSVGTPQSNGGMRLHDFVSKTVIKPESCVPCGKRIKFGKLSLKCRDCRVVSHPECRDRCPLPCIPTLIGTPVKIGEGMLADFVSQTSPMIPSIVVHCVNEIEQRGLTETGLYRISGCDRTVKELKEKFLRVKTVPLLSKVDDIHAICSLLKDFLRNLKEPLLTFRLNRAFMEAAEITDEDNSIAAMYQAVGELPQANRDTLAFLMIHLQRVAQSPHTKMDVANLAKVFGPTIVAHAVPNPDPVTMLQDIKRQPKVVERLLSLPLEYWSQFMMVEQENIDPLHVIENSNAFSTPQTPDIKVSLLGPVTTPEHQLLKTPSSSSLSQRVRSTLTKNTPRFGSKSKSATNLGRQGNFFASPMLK

Protein RecA = molecular target: T4, Protein RecA (Mycobacterium tuberculosis, UniProt P9WHJ3); assay: Fluorescence Cell-Free Homogeneous Dose Retest to Identify Inhibitors of RecA-Intein Splicing Activity. [Related pubchem assays (depositor defined):AID2097, AID2223, AID489010, AID492950]; type: functional
T4 sequence (P9WHJ3 whole entry): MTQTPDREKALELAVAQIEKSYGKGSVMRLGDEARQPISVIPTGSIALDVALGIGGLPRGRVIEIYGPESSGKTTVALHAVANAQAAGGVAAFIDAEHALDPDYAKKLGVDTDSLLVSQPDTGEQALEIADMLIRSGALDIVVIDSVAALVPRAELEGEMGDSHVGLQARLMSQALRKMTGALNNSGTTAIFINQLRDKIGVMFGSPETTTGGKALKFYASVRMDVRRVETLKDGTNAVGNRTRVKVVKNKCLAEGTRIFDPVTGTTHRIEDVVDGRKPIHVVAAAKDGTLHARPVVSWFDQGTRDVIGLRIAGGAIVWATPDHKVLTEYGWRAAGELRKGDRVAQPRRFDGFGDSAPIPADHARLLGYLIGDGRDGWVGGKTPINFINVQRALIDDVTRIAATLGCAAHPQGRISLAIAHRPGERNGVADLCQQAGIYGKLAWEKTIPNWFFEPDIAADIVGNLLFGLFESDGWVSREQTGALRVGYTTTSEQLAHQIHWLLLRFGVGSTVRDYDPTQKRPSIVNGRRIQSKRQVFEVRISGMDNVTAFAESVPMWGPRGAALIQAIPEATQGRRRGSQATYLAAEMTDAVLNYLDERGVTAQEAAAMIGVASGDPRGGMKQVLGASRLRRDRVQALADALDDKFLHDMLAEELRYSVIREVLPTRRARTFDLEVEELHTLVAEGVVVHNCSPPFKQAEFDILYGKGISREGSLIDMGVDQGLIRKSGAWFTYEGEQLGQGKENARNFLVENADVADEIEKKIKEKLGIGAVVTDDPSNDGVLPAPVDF

[8] = Shn3 3'UTR reporter inhibitors, dose response, cell-based, Clone20 osteoblasts, firefly luciferase, cherry-picked (AID 624132); type: functional;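 also: firefly luciferase luminescence from reporter carrying the Shn3 3'UTR in osteoblasts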
[9] = HepG2 cell cytotoxicity, dose response, cytotoxicity control for Shn3 inhibitor project, CellTiter-Glo, cherry-picked (AID 624134); type: functional, cell-based
[10] = Fluorescence-based cell-based high throughput dose response assay for inhibitors of the interaction of nucleotide-binding oligomerization domain containing 2 (NOD2) and the receptor-interacting serine-threonine kinase 2 (RIPK2).; type: functional; conditions: Homo sapiens
[11] = control 3'UTR Renilla luciferase suppression, dose response, counter-screen for Shn3 inhibitor project, cell-based, Clone20-Shn3RL, cherry-picked (AID 624133); type: functional
Beta Lactamase = Beta Lactamase (Pseudomonas aeruginosa, UniProt Q932Y6); assay: beta-lactamase reporter inhibitor potency, dose response, artefact control for NOD2-RIPK2 interaction inhibitor project, BLA reporter cells, FRET fluorescence (AID 651552); type: functional, cell-based
Sequence of Beta Lactamase (Q932Y6 whole entry): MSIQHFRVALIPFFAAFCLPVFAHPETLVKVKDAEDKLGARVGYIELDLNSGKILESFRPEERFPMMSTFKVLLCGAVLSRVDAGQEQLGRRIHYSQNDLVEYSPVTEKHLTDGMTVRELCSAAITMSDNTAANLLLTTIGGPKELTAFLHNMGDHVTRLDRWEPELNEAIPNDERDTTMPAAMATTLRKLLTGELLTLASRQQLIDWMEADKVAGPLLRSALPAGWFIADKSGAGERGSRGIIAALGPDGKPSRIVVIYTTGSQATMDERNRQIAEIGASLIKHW

[12] = molecular target: FAD-linked sulfhydryl oxidase ALR (Homo sapiens, UniProt P55789); assay: inhibitors of human ALR sulfhydryl oxidase, dose response, biochemical, H2O2 detection, luminescence, cherry-pick (AID 493248)
Sequence of FAD-linked sulfhydryl oxidase ALR (P55789 whole entry): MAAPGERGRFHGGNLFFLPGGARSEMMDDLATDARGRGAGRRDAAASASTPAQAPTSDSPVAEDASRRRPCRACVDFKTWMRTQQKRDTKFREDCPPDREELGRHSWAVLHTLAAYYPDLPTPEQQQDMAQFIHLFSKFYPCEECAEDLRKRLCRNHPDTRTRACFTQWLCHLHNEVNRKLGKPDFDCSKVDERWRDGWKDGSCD

[13] = inhibitors of PGC1a acetylation in cells, dose response, cell-based, cherry-picked samples (AID 720514); type: functional;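 also: potency may reflect raised or lowered acetylation signal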
[14] = molecular target: T5, Replicative DNA helicase DnaB (Mycobacterium tuberculosis, UniProt P9WMR3); assay: DnaB intein splicing inhibitors, dose response, biochemical, cell-free fluorescence (AID 449749); type: functional
T5 sequence (P9WMR3 whole entry): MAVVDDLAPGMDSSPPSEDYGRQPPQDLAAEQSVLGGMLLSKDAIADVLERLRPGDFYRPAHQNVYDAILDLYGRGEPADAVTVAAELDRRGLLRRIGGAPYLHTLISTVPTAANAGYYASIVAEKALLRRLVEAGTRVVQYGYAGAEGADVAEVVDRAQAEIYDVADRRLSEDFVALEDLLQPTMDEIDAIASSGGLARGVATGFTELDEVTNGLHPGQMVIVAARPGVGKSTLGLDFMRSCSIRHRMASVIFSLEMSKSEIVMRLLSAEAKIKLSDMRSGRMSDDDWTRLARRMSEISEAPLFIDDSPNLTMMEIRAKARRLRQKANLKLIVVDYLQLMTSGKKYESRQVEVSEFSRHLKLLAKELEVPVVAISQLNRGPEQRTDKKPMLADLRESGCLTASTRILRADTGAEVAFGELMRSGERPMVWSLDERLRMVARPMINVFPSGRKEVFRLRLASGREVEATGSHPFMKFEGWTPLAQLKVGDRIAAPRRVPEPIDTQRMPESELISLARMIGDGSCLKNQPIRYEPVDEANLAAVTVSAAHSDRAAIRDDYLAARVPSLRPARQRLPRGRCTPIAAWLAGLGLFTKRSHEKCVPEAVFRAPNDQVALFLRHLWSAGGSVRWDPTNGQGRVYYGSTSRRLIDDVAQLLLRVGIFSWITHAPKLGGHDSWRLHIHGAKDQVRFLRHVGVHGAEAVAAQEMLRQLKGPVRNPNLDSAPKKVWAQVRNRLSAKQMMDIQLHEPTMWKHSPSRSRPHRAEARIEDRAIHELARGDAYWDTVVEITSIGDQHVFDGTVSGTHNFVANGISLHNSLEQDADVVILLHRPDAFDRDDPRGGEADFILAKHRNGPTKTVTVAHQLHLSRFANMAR

[15] = Luminescence Cell-Based Dose Retest to Confirm Inhibitors of Cancer Stem Cells. [Related pubchem assays (depositor defined):AID2717, AID2721]; type: functional; conditions: Homo sapiens
[16] = molecular target: T6, RNA-binding protein pos-1 (Caenorhabditis elegans, UniProt G5EF15); assay: inhibitors of POS-1/mex-3 RNA binding, dose response, biochemical, fluorescence polarization (AID 1964);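 also: purified POS-1 fused to maltose binding protein made in E. coli; potency of compounds blocking POS-1 binding to fluorescent RNA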
T6 sequence (G5EF15 whole entry): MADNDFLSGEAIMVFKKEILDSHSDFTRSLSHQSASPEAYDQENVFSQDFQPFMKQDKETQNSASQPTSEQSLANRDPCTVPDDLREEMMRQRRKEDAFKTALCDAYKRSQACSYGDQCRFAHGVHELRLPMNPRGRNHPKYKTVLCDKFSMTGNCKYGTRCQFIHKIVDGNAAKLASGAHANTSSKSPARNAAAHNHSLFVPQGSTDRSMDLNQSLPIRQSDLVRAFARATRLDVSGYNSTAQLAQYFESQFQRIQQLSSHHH

[17] = molecular target: T7, Zinc finger protein mex-5 (Caenorhabditis elegans, UniProt Q9XUB2); assay: MEX-5/TCR-2 RNA interaction inhibitors, dose response, biochemical, C. elegans, fluorescence polarization (AID 1960)
T7 sequence (Q9XUB2 whole entry): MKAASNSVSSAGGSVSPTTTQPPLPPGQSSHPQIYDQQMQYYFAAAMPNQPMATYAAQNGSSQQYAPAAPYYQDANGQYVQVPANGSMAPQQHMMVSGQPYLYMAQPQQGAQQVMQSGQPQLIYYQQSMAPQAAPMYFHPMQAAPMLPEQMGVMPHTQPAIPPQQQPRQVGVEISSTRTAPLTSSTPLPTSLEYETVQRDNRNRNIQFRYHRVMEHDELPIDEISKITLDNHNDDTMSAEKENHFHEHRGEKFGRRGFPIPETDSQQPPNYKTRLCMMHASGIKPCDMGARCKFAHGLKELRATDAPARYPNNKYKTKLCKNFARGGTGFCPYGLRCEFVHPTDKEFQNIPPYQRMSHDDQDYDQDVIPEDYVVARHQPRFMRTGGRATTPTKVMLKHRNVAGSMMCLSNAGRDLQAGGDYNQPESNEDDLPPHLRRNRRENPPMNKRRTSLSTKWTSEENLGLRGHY

## CSc1nnc(C)c(/C=C/NOCc2cccc(F)c2)n1
[1]
  IC50: 14 µM (active)
[2]
  IC50: 69.9 µM (inactive)

## Clc1ccccc1-c1ccc2ncnc(NCc3ccc4c(c3)OCO4)c2c1
[3]
  IC50: 83.3 µM (inactive)
[4]
  IC50: 30 µM (inactive)

## CCOC(=O)CSc1nc(N)c(C(=O)Nc2ccc(N(C)C)cc2)s1
[5]
  IC50: < 0.4 µM (active)
[6]
  CC50: 100 µM (active)
[7]
  IC50: 31.7 µM (active)

## O=C(NCc1ccc2c(c1)OCO2)c1nc(S(=O)(=O)Cc2ccccc2)ncc1Cl
Protein RecA
  EC50: 4.16 µM (active)
[8]
  AC50: 6.4 µM (active)
[9]
  AC50: 40.5 µM (active)
[10]
  IC50: 4.89 µM (active)
[11]
  AC50: 21.7 µM (active)
Beta Lactamase
  IC50: 32.5 µM (inactive)
[12]
  AC50: 0.505 µM (active)
[13]
  AC50: 21.7 µM (active)
[14]
  AC50: 2.27 µM (active)

## COc1ccc(-c2[nH][nH]c(=O)c2NC(=O)c2ccc([N+](=O)[O-])cc2)cc1
[1]
  IC50: 65.5 µM (inactive)
[2]
  IC50: 47.2 µM (active)

## CCNC(=O)O/N=C1\CCCCC1c1ccc([N+](=O)[O-])cc1[N+](=O)[O-] (configuration not stated)
[1]
  IC50: 27.2 µM (active)
[2]
  IC50: 14.4 µM (active)

## Cc1cc(-c2ccccc2)nc(N/N=C/c2ccc(O)cc2O)n1
[15]
  AC50: 6.35 µM (active)
[16]
  EC50: > 300 µM (not active)
[6]
  CC50: 100 µM (active)
[17]
  EC50: 54 µM (active)
[7]
  IC50: 69.1 µM (active)

## COc1cc(/C=N/NC(=S)Nc2cccc(S(=O)(=O)N(C)C)c2)ccc1O
[6]
  CC50: 100 µM (active)
[7]
  IC50: 29 µM (active)
